Assay [1] relates to CylLS” in C+ E. faecalis ATCC 29212. Kind of assay: Detection of CylLS” from extracts of E. faecalis (LCMS). Type of assay: cell-based, Enterococcus faecalis. Conditions: for Concentration CylLS (Figure 8C), replicates 1-4: ATCC 29212 overnight culture extract; for Concentration CylLS (Figure 8C), avg: n = 4. As to the method: To determine if inhibitor 9 blocks the maturation of cytolysin in C+ E. faecalis, an LCMS method was developed to estimate the concentration of CylLS” in cell extracts. This method employed biosynthetically prepared ^15N,^13C-labeled CylLS” as an internal standard. Cultures of E. faecalis were treated with inhibitor 9 or vehicle then lyophilized and extracted with methanol.
An overnight culture of E. faecalis ATCC 29212 was diluted to an OD600 equal to 2.0 in BHI then further diluted 1000-fold in BHI. Inhibitor 9 or vehicle was added immediately after dilution and the inoculated samples were incubated with shaking at 37 °C for 20 h. Following incubation, a 400 µL aliquot of each sample was flash frozen and lyophilized. Each lyophilized sample was extracted with 400 µL of 90% methonal/10% water containing ^15N,^13C-labeled CylLS” (5.8 nM). Alternating rounds of water bath sonication and vortexing were used to homogenize the samples. Once homogenized, the samples were allowed to stand at room temperature for 1 h then were centrifuged at 16,000 g for 10 min, incubated at −20 °C for 1 h, and centrifuged at 16,000 g for 10 min. The supernatant was analyzed by LCMS using injection volumes of 5 µL. EIC corresponding to the exact masses of [M + 2H]^2+ and [M+Na+H]^2+ were integrated and the peak areas were added together giving the total CylLS” and internal standard responses. The concentration of CylLS” was estimated from the response ratio multiplied by the concentration of the internal standard.

The test system of assay [2] is cylLL, cylLS, and cylA transcripts in C+ E. faecalis ATCC 29212. Put plainly: RT-qPCR of cylLL, cylLS and cylA transcripts. In kind it is cell-based, Enterococcus faecalis. Here is the method:
Since the cytolysin BGC is often expressed in two transcripts because of the presence of a weak intergenic terminator between cylLL and cylM, primers and amplicons were selected for cylLL, cylLS and cylA[67].
The amounts of cylLL, cylLS, and cylA transcripts relative to the amount of 16S rRNA were determined by RT-qPCR. Amplicons and primers used to quantify cylLL, cylLS and 16S rRNA were identical to those previously reported. All primers are listed in Supplementary Table 3. Overnight cultures of E. faecalis ATCC 29212 were prepared as described in ‘Detection of CylLS” from extracts of E. faecalis’. Upon inoculation, samples were treated with 100 μM of 9 or vehicle. The samples were incubated at 37 °C for 20 h, then cells were collected by centrifugation (5000 g for 10 min). The supernatant was removed and the cells pellets were re-suspended in Lysis buffer (10 mM TrisHCl, 3 mg/mL lysozyme, pH = 7.8) at a concentration of 160 μL of Lysis buffer for 1 mL of overnight culture. The cells were incubated in Lysis buffer at room temperature for 15 min then RNA was extracted using a Monarch® Total RNA Miniprep Kit. Isolated RNA was immediately converted to cDNA using an iScript™ cDNA Synthesis Kit. cDNA was amplified using a SsoAdvanced Universal SYBR Green Supermix and a StepOnePlus Real-Time PCR System (Applied Biosystems). The expression level of each gene in each sample was determined by taking the difference between the CT of the amplification curve for the gene of interest (cylLL, cylLS or cylA) and the CT of the amplification curve for 16S rRNA, yielding ΔCT. ΔΔCT was determined by taking the difference between the ΔCT of the inhibitor treated sample and the ΔCT of the inhibitor-free control for each gene. Fold change in gene expression was calculature using Eq. (2)[76]. Four biological replicates were performed.2 Foldchangeingeneexpression=2^ΔΔCT
On the technique in general: Quantitative PCR measures a nucleic acid by following its amplification.

Setting [3] is: 100 μM of 9, untreated control = 1.0.

Values joined by “and” are separate entries in the source; they are usually repeats but may differ in a detail not shown here. Equal entries are not always repeated. Non-standard residues stand in square brackets, D forms with d. Residues, ends and D or L forms follow the SMILES beside them. *: point of attachment. boroGlu = O=C(O)CC[C@H](N*)B(O)O; Gly(cPr) = N[C@H](C(=O)O)C1CC1

As to `CC(=O)NCC(=O)N[C@@H](CC(=O)O)C(=O)N[C@H](C(=O)N[C@@H](CCC(N)=O)C(=O)N[C@@H](C)C(=O)N[C@@H](CCC(=O)O)B(O)O)C1CC1` [Compound 9] (Ac-GD[Gly(cPr)]QA-boroGlu), the “quantities of CylLS” less than the untreated control” value in assay [1] (100 µM, on average) came to 5.5 fold. For the same compound, in assay [1] (Conc 1 uM of 9), the “Concentration CylLS (Figure 8C), replicates 1-4” value is 1.79 nM and 1.72 nM and 1.6 nM and 1.8 nM; the “Concentration CylLS (Figure 8C), avg” value was 1.726 nM. Moreover, in assay [1] (Conc 10 uM of 9), the “Concentration CylLS (Figure 8C), replicates 1-4” value was 2.34 nM and 2.21 nM and 2.19 nM and 2.55 nM; the “Concentration CylLS (Figure 8C), avg” value is 2.322 nM. Moreover, in assay [1] (Conc 100 uM of 9), the “Concentration CylLS (Figure 8C), replicates 1-4” value is 0.272 nM and 0.227 nM and 0.262 nM and 0.247 nM; the “Concentration CylLS (Figure 8C), avg” value was determined as 0.2518 nM. In addition, in assay [2] (setting [3]), the “Fold Change, gene CylA (Figure 8D), replicates” value was 0.01989 and 0.0236 and 0.00144 and 0.00137; the “Fold Change, gene CylLL (Figure 8D), replicates” value was 0.00585 and 0.2177 and 0.1852; the “Fold Change, gene CylLS (Figure 8D), replicates” value is 0.2335 and 0.2124 and 0.00397 and 0.00605. Besides, in assay [2] (100 μM, vs untreated control), the “reduction in cylA transcripts” value was determined as 86 fold, the “reduction in cylLL transcripts” value is given as 9-10 fold and the “reduction in cylLS transcripts” value is recorded as 9-10 fold.

The values are drawn from paper PMC12304293, “Combatting virulent gut bacteria by inhibiting the biosynthesis of a two-component lanthipeptide toxin” (Nature Communications, 2025).
